The values below come from patent US9089139B2, “Agri-horticultural pest control compositions comprising 4-(3-butynyl)aminopyrimidine derivatives” (SDS Biotech K. K., priority 2011, dated 2015).

Read-outs that look alike come from different tables or passages of the source.

In assay [1] the test system is Sphaerotheca fuliginea. As to the kind of experiment: Test 1: control effect against powdery mildew on cucumber (control index). The class given is in vivo, Sphaerotheca fuliginea on cucumber (variety: SAGAMI HANJIRO). As to conditions: for pest or weed control at 10 ppm: read-out: Control index; for pest or weed control at 0.5 ppm: test concentration 0.5 ppm. The source says:
(§1) The expected efficacies of the combinations of the individual active compounds can be determined using Colby's formula, which is described below [Colby, S. R. “Calculating synergistic and antagonistic responses of herbicide combinations,” Weeds 15, 20-22 (1967)]: Colby's formula: E=A+B−(A×B/100) E is the predicted efficacy (control index) with reference to the untreated control when using the mixture of the active compound X at the concentration x and the active compound Y at the concentration y; A is the efficacy (control index) with respect to the untreated control when using the active compound X at the concentration x; B is the efficacy (control index) with respect to the untreated control when using the active compound […] at the concentration y.
(§2) Potted young seedlings of cucumber (variety: SAGAMI HANJIRO; in two-leaf stage) were sprayed with invention compounds formulated in accordance with Preparations and the existing antimicrobial active compounds listed in Table 3 (all compounds are identified by associated letters of the alphabet) after they were diluted with water to predetermined concentrations so that they would serve as active compounds; a spray gun was used to provide a spray rate of 15 ml per pot. After air-drying, the seedlings were inoculated with conida of Sphaerotheca fuliginea by spraying a suspension of the conida. Thereafter, the seedlings were cultivated for 14 days in a greenhouse and the percentage of diseased area was investigated for each leaf; based on the result of this investigation, the control index was calculated using the following formula: Control index={(percentage of diseased area on the untreated control−percentage of diseased area on treated sample)/percentage of diseased area on the untreated control}×100

In assay [2] the test system is Pseudoperonospora cubensis. Description: Control effect against Pseudoperonospora cubensis on cucumber seedlings (control index as in Test 1). The class given is in vivo. As to conditions: for pest or weed control at 0.05 ppm: test concentration 0.05 ppm.
Source text: as §1, §2
Potted young seedlings of cucumber (variety: SAGAMI HANJIRO; in two-and-a-half leaf stage) were sprayed with invention agri-horticulatural pest control compositions formulated in accordance with Preparations and the existing antimicrobial active compounds listed in Table 5 (all compounds are identified by associated letters of the alphabet) after they were diluted with water to predetermined concentrations so that they would serve as active compounds; a spray gun was used to provide a spray rate of 15 ml per pot. After air-drying, the seedlings were inoculated with conida of Pseudoperonospora cubensis by spraying a suspension of the conida. Immediately thereafter, the seedlings were held for a day under the conditions of 21° C. and 100% humidity. The seedlings were then placed at room temperature and 3 days later, the percentage of diseased area was investigated for each leaf; based on the result of this investigation, the control index was calculated as in Test 1.

In assay [3] the test system is Aphis gossypii. As to the kind of experiment: Test 3: insecticidal effect on Aphis gossypii (mortality rate). It is filed as in vivo.
Source text: as §1
Invention compounds and the existing insecticidal active compounds shown in Table 7 (hereinbelow, the compound names are identified by associated letters of the alphabet) were diluted with water to predetermined concentrations so that they would serve as active ingredients. Cucumber leaves with a diameter of 3 cm were placed on plastic cups filled with 0.5% soft agar and five adult aphids were released to feed on the leaves. After standing overnight, the adult insects were removed and the number of nymph as an offspring was counted; each of the prepared liquid samples of insecticide was sprayed in 0.4 ml portions and two days later, the number of dead insects was countd to calculate the mortality rate. The expected efficacies of the combinations of the individual active compounds were calculated by Colby's formula.

Where [4] appears, read: individual active compound, test concentration 10 ppm.
Setting [5] is: Podosphaera fuliginea, 336 h, individual active compound, test concentration 1 ppm.
[6] abbreviates: individual active compound, test concentration 1 ppm.
[7] abbreviates: Podosphaera fuliginea, 336 h, individual active compound, test concentration 100 ppm.
Where [8] appears, read: individual active compound, test concentration 0.1 ppm.
The mark [9] stands for this setting: Podosphaera fuliginea, 336 h, individual active compound, test concentration 10 ppm.
[10] abbreviates: Podosphaera fuliginea, 336 h, individual active compound.
The mark [11] stands for this setting: Pseudoperonospora cubensis, 72 h, individual active compound, read-out: Observed value Control index.
The mark [12] stands for this setting: Aphis gossypii, 48 h, individual active compound, test concentration 0.1 ppm, read-out: Observed value Mortality rate.

In the case of `N#Cc1c(Cl)c(Cl)c(Cl)c(C#N)c1Cl` [Aa: Chlorothalonil, chlorothalonil], the pest or weed control at 5 ppm in assay [1] (Podosphaera fuliginea, 336 h, individual active compound, test concentration 5 ppm) is 48%. In addition, in assay [2] (Pseudoperonospora cubensis, 72 h, individual active compound, test concentration 0.5 ppm, read-out: Observed value Control index), the pest or weed control at 0.5 ppm amounted to 49%.
For the compound `CCCCCCCCCCCCc1ccc(S(=O)(=O)O)cc1.CCCCCCCCCCCCc1ccc(S(=O)(=O)O)cc1.CCCCCCCCCCCCc1ccc(S(=O)(=O)O)cc1.NC(N)=NCCCCCCCCNCCCCCCCCN=C(N)N` [Ab: Iminoctadine albesilate, iminoctadine albesilate], the Control index in assay [1] (individual active compound, test concentration 2 ppm) stood at 41.
Regarding `COCC(=O)N(c1c(C)cccc1C)[C@H](C)C(=O)OC` [Ba: Metalaxyl M, metalaxyl-M], the “Observed value Control index” value in assay [2] (setting [4]) is on record as 35.
In the case of `COC(=O)NC(=S)Nc1ccccc1NC(=S)NC(=O)OC` [Ca: Thiophanate-methyl, thiophanate-methyl], in assay [1] (Podosphaera fuliginea, 336 h, individual active compound, test concentration 2 ppm), the pest or weed control at 2 ppm came out at 40%.
For the compound `CC(C)CC(C)c1sccc1NC(=O)c1cn(C)nc1C(F)(F)F` (stereo not drawn) [Da: Penthiopyrad, penthiopyrad], in assay [1] (setting [5]), the pest or weed control at 1 ppm turned out to be 51%.
Consider `CO/C=C(/C(=O)OC)c1ccccc1Oc1cc(Oc2ccccc2C#N)ncn1` [Ea: Azoxystrobin, azoxystrobin], for which the Control index in assay [1] (individual active compound, test concentration 100 ppm) turned out to be 21. In addition, the “Observed value Control index” value in assay [2] (setting [6]) is 45.
With `CO/N=C(/C(=O)OC)c1ccccc1COc1ccccc1C` [Eb: Kresoxim-methyl, kresoxim-methyl], in assay [1] (setting [7]), the pest or weed control at 100 ppm amounted to 29%. For the same compound, the pest or weed control at 1 ppm in assay [2] (Pseudoperonospora cubensis, 72 h, individual active compound, test concentration 1 ppm, read-out: Observed value Control index) came out at 42%.
Turning to `CON=C(C(=O)OC)c1ccccc1CON=C(C)c1cccc(C(F)(F)F)c1` [Ec: Trifloxystrobin, trifloxystrobin], the pest or weed control at 100 ppm in assay [1] (setting [7]) is 24%.
As to `COC(=O)N(OC)c1ccccc1COc1ccn(-c2ccc(Cl)cc2)n1` [Ed: Pyraclostrobin, pyraclostrobin], the pest or weed control at 100 ppm in assay [1] (setting [7]) amounted to 22%.
For `CCC(Nc1ncnc(C)c1Cl)c1ccc(OC(F)F)cc1` (stereo not drawn) [Fa: Diflumetorim, diflumetorim], the pest or weed control at 1 ppm in assay [1] (setting [5]) turned out to be 42%.
As for `Cc1ccc(-c2c(Cl)nc(C#N)n2S(=O)(=O)N(C)C)cc1` [Fb: Cyazofamid, cyazofamid], the pest or weed control at 0.1 ppm in assay [2] (Pseudoperonospora cubensis, 72 h, individual active compound, test concentration 0.1 ppm, read-out: Observed value Control index) turned out to be 50%.
In the case of `Cc1c(Br)c2ccc(F)cc2n1S(=O)(=O)c1ncn(S(=O)(=O)N(C)C)n1` [Fc: Amisulbrom, amisulbrom], the “Observed value Control index” value in assay [2] (setting [8]) is 37.
Take `CC1COC(Cn2cncn2)(c2ccc(Oc3ccc(Cl)cc3)cc2Cl)O1` (stereo not drawn) [Ha: Difenoconazole, difenoconazole]: the pest or weed control at 10 ppm in assay [1] (setting [9]) came out at 27%.
Still for that read-out and setting: next, `CC(C)(C)C(O)(CCc1ccc(Cl)cc1)Cn1cncn1` (stereo not drawn) [Hb: Tebuconazole, tebuconazole]: 42%.
As to `CC(C)(C)C(=O)C(Oc1ccc(Cl)cc1)n1cncn1` (stereo not drawn) [Hc: Triadimefon, triadimefon], the pest or weed control at 100 ppm in assay [1] (setting [7]) is 21%.
Consider `CCCOC/C(=N\c1ccc(Cl)cc1C(F)(F)F)n1ccnc1` [Hd: Triflumizole, triflumizole], for which the pest or weed control at 10 ppm in assay [1] (setting [9]) amounted to 39%.
For `CC(Cc1ccc(C(C)(C)C)cc1)CN1C[C@@H](C)O[C@@H](C)C1` (stereo partly drawn) [He: Fenpropimorph, fenpropimorph], the pest or weed control at 100 ppm in assay [1] (setting [7]) was found to be 12%.
Consider `Fc1ccc(Oc2ccnc3cc(Cl)cc(Cl)c23)cc1` [Ia: Quinoxyfen, quinoxyfen], for which, in assay [1] (setting [5]), the pest or weed control at 1 ppm worked out at 39%.
On to `COc1ccc(C(=CC(=O)N2CCOCC2)c2ccc(Cl)cc2)cc1OC` [Ja: Dimethomorph, dimethomorph], for which the pest or weed control at 5 ppm in assay [2] (Pseudoperonospora cubensis, 72 h, individual active compound, test concentration 5 ppm, read-out: Observed value Control index) is 21%.
`CC(C)OC(=O)N[C@H](C(=O)N[C@H](C)c1nc2ccc(F)cc2s1)C(C)C` [Jb: Benthiavalicarb-isopropyl, benthiavalicarb]: the pest or weed control at 0.5 ppm in assay [2] (Pseudoperonospora cubensis, 72 h, read-out: Observed value Control index) worked out at 12%.
Regarding `C#CCOc1ccc(CCNC(=O)C(OCC#C)c2ccc(Cl)cc2)cc1OC` (stereo not drawn) [Jc: Mandipropamid, mandipropamid], the “Observed value Control index” value in assay [2] (individual active compound, test concentration 0.5 ppm) is 21.
Consider `CSC(=O)c1cccc2nnsc12` [Ma: Acibenzolar-S-methyl, acibenzolar-5-methyl], for which the Control index in assay [1] (setting [4]) is given as 38.
On to `CCNC(=O)NC(=O)/C(C#N)=N/OC` [Na: Cymoxanil, cymoxanil], for which, in assay [2] (Pseudoperonospora cubensis, 72 h, individual active compound, test concentration 10 ppm, read-out: Observed value Control index), the pest or weed control at 10 ppm was 45%.
With `Cc1ccc2nc3sc(=O)sc3nc2c1` [Nb: Chinomethionate, chinomethionat], in assay [1] (Podosphaera fuliginea, 336 h), the pest or weed control at 10 ppm is 38%.
For the compound `O=C(Cc1ccccc1)N/C(=N\OCC1CC1)c1c(C(F)(F)F)ccc(F)c1F` [Nc: Cyflufenamid, cyflufenamid], in assay [1] (setting [5]), the pest or weed control at 1 ppm was 49%.
As for `COc1ccccc1N1CCS/C1=C(/C#N)Sc1cc(C(F)(F)F)ccc1F` [Nd: Flutianil, flutianil], the Control index in assay [1] (setting [6]) came out at 42.
As for `COP(=O)(NC(C)=O)SC` (stereo not drawn) [P: Acephate, acephate, reference compound], in assay [3] (Aphis gossypii, 48 h, read-out: Observed value Mortality rate), the pest or weed control at 10 ppm turned out to be 47%.
Take `O=[N+]([O-])NC1=NCCN1Cc1ccc(Cl)nc1` [Q: Imidacloprid, imidacloprid, reference compound]: the pest or weed control at 0.01 ppm in assay [3] (Aphis gossypii, 48 h, individual active compound, test concentration 0.01 ppm, read-out: Observed value Mortality rate) was found to be 50%.
Turning to `CCc1nn(C)c(C(=O)NCc2ccc(Oc3ccc(C)cc3)cc2)c1Cl` [R: Tolfenpyrad, tolfenpyrad, reference compound], in assay [3] (Aphis gossypii, 48 h, individual active compound, test concentration 0.5 ppm, read-out: Observed value Mortality rate), the pest or weed control at 0.5 ppm came to 48%.
With `CC1(C)[C@H](C(=O)O[C@H](C#N)c2cccc(Oc3ccccc3)c2)[C@@H]1/C=C\C(=O)OC(C(F)(F)F)C(F)(F)F` [S: Acrinathrin], the “Observed value Mortality rate” value in assay [3] (setting [8]) stood at 35.
Consider `N#CCNC(=O)c1cnccc1C(F)(F)F` [T: Flonicamid, flonicamid, reference compound], for which, in assay [3] (setting [6]), the “Observed value Mortality rate” value amounted to 43.
Regarding `CC(=O)N1C(=O)N(NCc2cccnc2)Cc2cc(C(F)(C(F)(F)F)C(F)(F)F)ccc21` [U: Pyrifluquinazon, pyrifluquinazon, reference compound], the “Observed value Mortality rate” value in assay [3] (individual active compound, test concentration 0.01 ppm) turned out to be 40.
On to `FCc1ccccc1C#CCCNc1ncnc2ccccc12` [compound 99], for which the pest or weed control at 0.5 ppm in assay [1] (setting [10]) stood at 53%. The pest or weed control at 0.05 ppm in assay [2] (setting [11]) amounted to 46%. The pest or weed control at 0.1 ppm in assay [3] (setting [12]) worked out at 44%.
The matching figures for `FC(F)c1ccccc1C#CCCNc1ncnc2ccccc12` [compound 100]: 55%, 42% and 40%.
For the compound `FC(F)(F)c1ccccc1C#CCCNc1ncnc2ccccc12` [compound 101], the pest or weed control at 0.5 ppm in assay [1] (setting [10]) stood at 56%. In addition, the pest or weed control at 0.05 ppm in assay [2] (setting [11]) amounted to 38%. Also, in assay [3] (setting [12]), the pest or weed control at 0.1 ppm turned out to be 36%.
The matching figures for `COCc1ccccc1C#CCCNc1ncnc2ccccc12` [compound 133]: 49%, 41% and 39%.
The matching figures for `COCc1cc(F)ccc1C#CCCNc1ncnc2ccccc12` [compound 139]: 51%, 43% and 41%.
Taken in the same sequence, the figures for `COCc1cc(Cl)ccc1C#CCCNc1ncnc2ccccc12` [compound 140] were 48%, 45% and 43%.
For the compound mancozeb [Ac: Manzeb], the “Observed value Control index” value in assay [2] (setting [6]) turned out to be 52.
